Test: xn = mol fraction of the nth substance listed
Conditions: 101 kPa

OCCCCO + CS(C)=O
viscosity [mPa·s]
Conditions | 293.15 K | 298.15 K | 303.15 K | 308.15 K | 313.15 K | 318.15 K
x1 = 0.0436 | 2.61 | 2.25 | 2.06 | 1.81 | 1.67 | 1.55
x1 = 0.0879 | 3 | 2.59 | 2.35 | 2.06 | 1.89 | 1.74
x1 = 0.1327 | 3.46 | 2.97 | 2.68 | 2.34 | 2.13 | 1.96
x1 = 0.1781 | 4.01 | 3.4 | 3.06 | 2.66 | 2.41 | 2.21
x1 = 0.2242 | 4.66 | 3.92 | 3.51 | 3.05 | 2.73 | 2.53
x1 = 0.2709 | 5.43 | 4.53 | 4.05 | 3.49 | 3.13 | –
x1 = 0.3183 | 6.36 | 5.27 | 4.7 | 4 | 3.55 | –
x1 = 0.3663 | 7.51 | 6.19 | 5.47 | 4.63 | 4.08 | –
x1 = 0.415 | 8.85 | 7.3 | 6.4 | 5.38 | 4.7 | –
x1 = 0.4644 | 10.5 | 8.6 | 7.5 | 6.3 | 5.47 | –
x1 = 0.5145 | 12.7 | 10.3 | 8.9 | 7.4 | 6.4 | –
x1 = 0.5653 | 15.4 | 12.4 | 10.6 | 8.8 | 7.5 | –
x1 = 0.6169 | 18.9 | 15 | 12.8 | 10.5 | 8.9 | –
x1 = 0.6692 | 23.4 | 18.5 | 15.6 | 12.7 | 10.7 | –
x1 = 0.7223 | 29.2 | 22.9 | 19.1 | 15.4 | 12.9 | –
x1 = 0.7762 | 36.7 | 28.4 | 23.5 | 18.9 | 15.6 | –
x1 = 0.8309 | 46.5 | 35.7 | 29.3 | 23.2 | 19 | –
x1 = 0.8864 | 59.2 | 44.8 | 36.4 | 28.6 | 23.3 | –
x1 = 0.9428 | 75.2 | 56.4 | 45.4 | 35.5 | 28.7 | –

From the CheMixHub viscosity set
